Marks after values point to notes of the source that are not given here.
Assay: Binary excipient screening: stability of CPMM 1 mg/mL in IV-compatible excipient solutions in 10 mM pH 3 phosphate buffer
Assay type: physicochemical
Settings: for CPMM % Purity: t = 0
Method: CPMM was evaluated for compatibility with excipients that are suitable for IV administration. A buffer solution (phosphate at pH 3) was selected as the diluent for excipient screening studies. […] CPMM was solubilized in each excipient solution at 1 mg/mL.
While CPMM completely dissolved in the control sample within several minutes, many of the excipient solutions required overnight storage at 5° C. to solubilize the drug.
Each excipient sample solution was placed on a two-week stability study at 25° C./60% relative humidity and 40° C./75% relative humidity, and analyzed for CPMM purity at t=0, 1, and 2 weeks by comparing individual samples to their respective excipient blank solution.

COC(=O)C1(OC(=O)c2cncn2[C@H](C)c2ccccc2)CC1 [CPMM, 1-(methoxycarbonyl)cyclopropyl-1-[(1R)-1-phenylethyl]-1H-imidazole-5-carboxylate]
Change in CPMM % Purity (Ascorbic Acid 0.5% in pH 3 buffer, 1 week 25° C./60% RH): −14.4%
Change in CPMM % Purity (Ascorbic Acid 0.5% in pH 3 buffer, 1 week 40° C./75% RH): −31.6%
Change in CPMM % Purity (Ascorbic Acid 0.5% in pH 3 buffer, 2 weeks 25° C./60% RH): −26.4%
Change in CPMM % Purity (Ascorbic Acid 0.5% in pH 3 buffer, 2 weeks 40° C./75% RH): −49.8%
CPMM % Purity (Ascorbic Acid 0.5% in pH 3 buffer): 97.6%
Change in CPMM % Purity (Ascorbic Acid/Edetate Disodium Dihydrate 0.5%/0.05% in pH 3 buffer, 1 week 25° C./60% RH): −2.2%
Change in CPMM % Purity (Ascorbic Acid/Edetate Disodium Dihydrate 0.5%/0.05% in pH 3 buffer, 1 week 40° C./75% RH): −9.8%
Change in CPMM % Purity (Ascorbic Acid/Edetate Disodium Dihydrate 0.5%/0.05% in pH 3 buffer, 2 weeks 25° C./60% RH): −4.2%
Change in CPMM % Purity (Ascorbic Acid/Edetate Disodium Dihydrate 0.5%/0.05% in pH 3 buffer, 2 weeks 40° C./75% RH): −17.8%
CPMM % Purity (Ascorbic Acid/Edetate Disodium Dihydrate 0.5%/0.05% in pH 3 buffer): 99.4%
Change in CPMM % Purity (Control: Water, 1 week 25° C./60% RH): −0.9%
Change in CPMM % Purity (Control: Water, 1 week 40° C./75% RH): −3.4%
CPMM % Purity (Control: Water): 99.4%
Change in CPMM % Purity (Control: pH 3 Buffer, 1 week 25° C./60% RH): −1.6%
Change in CPMM % Purity (Control: pH 3 Buffer, 1 week 40° C./75% RH): −5.3%
Change in CPMM % Purity (Control: pH 3 Buffer, 2 weeks 25° C./60% RH): −2.6%
Change in CPMM % Purity (Control: pH 3 Buffer, 2 weeks 40° C./75% RH): −9.2%
CPMM % Purity (Control: pH 3 Buffer): 99.5%
Change in CPMM % Purity (Dextrose 5% in pH 3 buffer, 1 week 25° C./60% RH): −1.5%
Change in CPMM % Purity (Dextrose 5% in pH 3 buffer, 1 week 40° C./75% RH): −5.2%
Change in CPMM % Purity (Dextrose 5% in pH 3 buffer, 2 weeks 25° C./60% RH): −2.5%
Change in CPMM % Purity (Dextrose 5% in pH 3 buffer, 2 weeks 40° C./75% RH): −9.0%
CPMM % Purity (Dextrose 5% in pH 3 buffer): 99.4%
Change in CPMM % Purity (Ethanol 10% in pH 3 buffer, 1 week 25° C./60% RH): −1.1%
Change in CPMM % Purity (Ethanol 10% in pH 3 buffer, 1 week 40° C./75% RH): −3.2%
Change in CPMM % Purity (Ethanol 10% in pH 3 buffer, 2 weeks 25° C./60% RH): −3.1%
Change in CPMM % Purity (Ethanol 10% in pH 3 buffer, 2 weeks 40° C./75% RH): −7.0%
CPMM % Purity (Ethanol 10% in pH 3 buffer): 99.5%
Change in CPMM % Purity (Glycerol 10% in pH 3 buffer, 1 week 25° C./60% RH): −1.3%
Change in CPMM % Purity (Glycerol 10% in pH 3 buffer, 1 week 40° C./75% RH): −4.7%
Change in CPMM % Purity (Glycerol 10% in pH 3 buffer, 2 weeks 25° C./60% RH): −3.6%
Change in CPMM % Purity (Glycerol 10% in pH 3 buffer, 2 weeks 40° C./75% RH): −9.8%
CPMM % Purity (Glycerol 10% in pH 3 buffer): 99.4%
Change in CPMM % Purity (HPβCD 10% in pH 3 buffer, 1 week 25° C./60% RH): −0.4%
Change in CPMM % Purity (HPβCD 10% in pH 3 buffer, 1 week 40° C./75% RH): −1.6%
Change in CPMM % Purity (HPβCD 10% in pH 3 buffer, 2 weeks 25° C./60% RH): −0.6%
Change in CPMM % Purity (HPβCD 10% in pH 3 buffer, 2 weeks 40° C./75% RH): −2.5%
CPMM % Purity (HPβCD 10% in pH 3 buffer): 99.4%
Change in CPMM % Purity (KCl 5% in pH 3 buffer, 1 week 25° C./60% RH): −1.3%
Change in CPMM % Purity (KCl 5% in pH 3 buffer, 1 week 40° C./75% RH): −4.8%
Change in CPMM % Purity (KCl 5% in pH 3 buffer, 2 weeks 25° C./60% RH): −2.2%
Change in CPMM % Purity (KCl 5% in pH 3 buffer, 2 weeks 40° C./75% RH): −8.2%
CPMM % Purity (KCl 5% in pH 3 buffer): 99.4%
Change in CPMM % Purity (Lutrol F68 1% in pH 3 buffer, 1 week 25° C./60% RH): −1.6%
Change in CPMM % Purity (Lutrol F68 1% in pH 3 buffer, 1 week 40° C./75% RH): −5.2%
Change in CPMM % Purity (Lutrol F68 1% in pH 3 buffer, 2 weeks 25° C./60% RH): −2.5%
Change in CPMM % Purity (Lutrol F68 1% in pH 3 buffer, 2 weeks 40° C./75% RH): −9.0%
CPMM % Purity (Lutrol F68 1% in pH 3 buffer): 99.5%
Change in CPMM % Purity (Mannitol 5% in pH 3 buffer, 1 week 25° C./60% RH): −1.5%
Change in CPMM % Purity (Mannitol 5% in pH 3 buffer, 1 week 40° C./75% RH): −5.2%
Change in CPMM % Purity (Mannitol 5% in pH 3 buffer, 2 weeks 25° C./60% RH): −2.6%
Change in CPMM % Purity (Mannitol 5% in pH 3 buffer, 2 weeks 40° C./75% RH): −9.1%
CPMM % Purity (Mannitol 5% in pH 3 buffer): 99.4%
Change in CPMM % Purity (NaCl 5% in pH 3 buffer, 1 week 25° C./60% RH): −1.1%
Change in CPMM % Purity (NaCl 5% in pH 3 buffer, 1 week 40° C./75% RH): −4.0%
Change in CPMM % Purity (NaCl 5% in pH 3 buffer, 2 weeks 25° C./60% RH): −1.9%
Change in CPMM % Purity (NaCl 5% in pH 3 buffer, 2 weeks 40° C./75% RH): −7.2%
CPMM % Purity (NaCl 5% in pH 3 buffer): 99.4%
Change in CPMM % Purity (PEG 400 10% in pH 3 buffer, 1 week 25° C./60% RH): −1.2%
Change in CPMM % Purity (PEG 400 10% in pH 3 buffer, 1 week 40° C./75% RH): −4.0%
Change in CPMM % Purity (PEG 400 10% in pH 3 buffer, 2 weeks 25° C./60% RH): −2.0%
Change in CPMM % Purity (PEG 400 10% in pH 3 buffer, 2 weeks 40° C./75% RH): −7.0%
CPMM % Purity (PEG 400 10% in pH 3 buffer): 99.5%
CPMM % Purity (PVP K17 5% in pH 3 buffer, excipient peak co-elutes with several related substances, not accounted for): 99.6%*

Source: US20170224662A1 (priority 2016, published 2017)
